{
  "source": "patent US20240325399A1",
  "about": "“PHARMACEUTICAL COMPOSITION FOR PREVENTING OR TREATING CHOLANGITIS OR LIVER DISEASE CAUSED BY CHOLANGITIS COMPRISING ADENOSINE DERIVATIVE” (FUTURE MEDICINE CO., LTD., priority 2021, published 2024)",
  "key": {"[1]": {"system": "TPA-induced inflammation of the mouse ear", "test": "Anti-inflammatory activity, TPA-induced inflammation of the mouse ear", "assay_type": "in vivo, ICR mice", "settings": "for Anti-inflammatory activity (TPA-induced mouse ear inflammation): 0.5% in acetone, 20 μl, topical to ear", "experimental": "The adenosine derivatives of the present invention were examined for anti-inflammatory activity in the following animal test. Seven-week-old male ICR mice were treated with TPA (12-O-tetradecanoylphorbol-13-acetate, 20 l) in the right ear. […] Hydrocortisone was used at the same concentration as a control.\n6 hrs after treatment with TPA, the mice were secondarily treated with the adenosine derivatives of the present invention. 24 hrs after TPA treatment, test animals were euthanized using a cervical dislocation method. Samples were obtained from the right ear using a 6 mm diameter punch. The activity was observed by measuring the ear sample using a microbalance. Percentages of inhibition were calculated using the following Equation 1. The compositions and amounts used in these experiments are summarized in Tables 14 to 17 and the anti-inflammatory activities thereof are shown in FIGS. 10 to 13."}, "[2]": {"settings": "patients with liver cirrhosis; cited from earlier work"}, "ICR mice": {"system": "ICR mice", "test": "Toxicity after intraperitoneal injection, 24 hrs observation, mice", "assay_type": "in vivo", "settings": "intraperitoneal 20, 10 and 1 mg/kg", "procedure": "(§1) The Adenosine Derivative of the present invention were assayed for cytotoxicity in animals."}, "Sprague Dawley rats": {"system": "Sprague Dawley rats", "test": "Toxicity after intraperitoneal injection, 24 hrs observation, rats", "assay_type": "in vivo", "settings": "SD rats, intraperitoneal 20, 10 and 1 mg/kg", "procedure": "as §1"}, "[3]": {"target": "T1, human A1 adenosine receptor (hA1) (Homo sapiens, UniProt P30542)", "T1 construct": "expressed in transfected cells; host or cells: CHO cells (ATCC No. CCL-61)", "T1 sequence (P30542 1-326)": "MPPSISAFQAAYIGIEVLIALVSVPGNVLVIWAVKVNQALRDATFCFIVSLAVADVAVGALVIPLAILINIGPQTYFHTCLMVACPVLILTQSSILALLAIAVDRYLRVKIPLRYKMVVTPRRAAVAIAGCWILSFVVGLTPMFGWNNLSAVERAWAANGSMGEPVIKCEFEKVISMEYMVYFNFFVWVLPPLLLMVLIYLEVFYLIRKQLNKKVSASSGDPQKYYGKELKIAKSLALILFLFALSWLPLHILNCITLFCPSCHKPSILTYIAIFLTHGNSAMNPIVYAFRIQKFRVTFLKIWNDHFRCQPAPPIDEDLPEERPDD", "test": "Binding affinity for A1 adenosine receptor ([3H]CCPA, CHO cells)", "settings": "percentage inhibition of specific binding in the presence of 10 μM of the unlabeled ligand NECA", "procedure": "CHO cells (ATCC No. CCL-61), in which A1 and A3 adenosine receptors were expressed, were cultured in F-12 media (Gibco, U.S.A.) supplemented with 10% fetal bovine serum (FBS) and penicillin/streptomycin (100 units/ml and 100 g/ml), at 37° C. in a 5% CO2 atmosphere. […] Incubation for 1 hr in a 37° C. incubator was followed by rapid filtration in a vacuum using a cell collector (TOMTEC, U.S.A.). Subsequently, the test tubes were washed three times with 3 ml of the buffer before radioactivity was measured using a γ-counter. […] Ki for binding affinity was determined by subtracting the non-specific binding value from the total binding value. On the basis of the specific binding values, the samples were analyzed for binding affinity to various adenosine receptors."}, "[4]": {"target": "T2, human A2A adenosine receptor (hA2A) (Homo sapiens, UniProt P29274)", "T2 construct": "expressed in transfected cells; host or cells: HEK 293 cell", "T2 sequence (P29274 whole entry)": "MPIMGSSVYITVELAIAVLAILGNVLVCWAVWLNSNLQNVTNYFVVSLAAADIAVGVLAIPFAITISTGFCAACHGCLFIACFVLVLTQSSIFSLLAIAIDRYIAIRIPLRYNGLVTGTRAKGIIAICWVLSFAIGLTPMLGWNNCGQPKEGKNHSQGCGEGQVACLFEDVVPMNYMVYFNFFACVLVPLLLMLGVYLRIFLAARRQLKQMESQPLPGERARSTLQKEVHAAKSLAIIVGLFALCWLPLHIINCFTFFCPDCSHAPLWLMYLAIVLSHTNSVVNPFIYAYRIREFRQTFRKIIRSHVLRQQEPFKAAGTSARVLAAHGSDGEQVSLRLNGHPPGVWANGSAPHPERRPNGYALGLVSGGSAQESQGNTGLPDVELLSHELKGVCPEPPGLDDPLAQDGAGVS", "test": "Binding affinity for A2A adenosine receptor ([3H]CGS-21680, HEK 293 cell)", "settings": "percentage inhibition of specific binding of 10 μM labeled ligand in the presence of 10 μM of the unlabeled ligand NECA", "procedure": "Each of the compounds synthesized in the examples was measured for IC50 at least 6 different concentrations, and the measurements were analyzed using SigmaPlot software to determine Ki values."}},
  "data": [
    {"compound": "O[C@@H]1[C@H](O)CS[C@H]1n1cnc2c(NCc3cccc(F)c3)nc(Cl)nc21", "note": "[Example 1, (2R,3R,4S)-2-(2-chloro-6-(3-fluorobenzylamino)-9H-purin-9-yl)tetrahydrothiophen-3,4-diol]", "values": [
      {"measurement": "Anti-inflammatory activity (TPA-induced mouse ear inflammation)", "setting": "[1]", "value": "increased"}
    ]},
    {"compound": "CC[C@H]1[C@@H](O)[C@@H]2[C@H](CC[C@]3(C)[C@@H]([C@H](C)CCC(=O)O)CC[C@@H]23)[C@@]2(C)CC[C@@H](O)C[C@@H]12", "note": "[OCA, obeticholic acid]", "values": [
      {"measurement": "Liver safety in patients", "setting": "[2]", "value": "may induce acute liver failure in patients with liver cirrhosis"}
    ]},
    {"compound": "COc1ccc(Cl)cc1CNc1nc(Cl)nc2c1ncn2[C@@H]1SC[C@@H](O)[C@H]1O", "note": "[Example 6, (2R,3R,4S)-2-(2-chloro-6-(5-chloro-2-methoxybenzylamino)-9H-purin-9-yl)tetrahydrothiophen-3,4-diol]", "values": [
      {"measurement": "Percentage of inflammation inhibition", "setting": "[1]; 0.5% in a mixture of distilled water and acetone (1:4)", "value": 34, "unit": "%"},
      {"measurement": "Anti-inflammatory activity (TPA-induced mouse ear inflammation)", "setting": "[1]", "value": "increased"}
    ]},
    {"compound": "O[C@@H]1[C@H](O)CO[C@H]1n1cnc2c(NCc3cccc(I)c3)nc(Cl)nc21", "note": "[Example 16, (2R,3R,4R)-2-(2-chloro-6-(3-iodobenzylamino)-9H-purin-9-yl)tetrahydrofuran-3,4-diol]", "values": [
      {"measurement": "Percentage of inflammation inhibition", "setting": "[1]; 0.5% in a mixture of DMSO and acetone (1:9)", "value": 79, "unit": "%"}
    ]},
    {"compound": "O[C@@H]1[C@H](O)CS[C@H]1n1cnc2c(NCc3cccc(Cl)c3)nc(Cl)nc21", "note": "[Example 2, (2R,3R,4S)-2-(2-chloro-6-(3-chlorobenzylamino)-9H-purin-9-yl)tetrahydrothiophen-3,4-diol]", "values": [
      {"measurement": "Weight gain or feed intake versus control group", "setting": "ICR mice", "value": "No difference in weight gain or feed intake"},
      {"measurement": "Weight gain or feed intake versus control group", "setting": "Sprague Dawley rats", "value": "No difference in weight gain or feed intake"},
      {"measurement": "% inhibition of specific binding, hA1", "setting": "[3]", "value": 37.9, "unit": "%"},
      {"measurement": "% inhibition of specific binding, hA2A", "setting": "[4]", "value": 17.7, "unit": "%"}
    ]}
  ]
}
